Results: patent EP0316212B1 (priority 1987, dated 1989)
Where two headings read alike, the source gives them in different places.

Experiments:
[1] = tested on: IHDT-6 (International Health Division-Tumor-6); assay type: cell-based
[2] = tested on: VSV (Vesicular Stomatitis Virus); assay: microbe, parasite or virus in culture; assay type: cell-based
[3] = tested on: HVE (Herpes Virus Eidolon); assay: Plaque method, neutralisation of HVE by coupled NP (TCC31 cells); assay type: cell-based
Description: L'effet des NP couplés (TNP-BSA, DNP-Glycine) a été évalué par la méthode des plages, comme pour le virus de la chorioméningite lymphocytaire dans l'exemple I. L'effet neutralisant des NP couplés a été évalué sur les virus enveloppés ou non enveloppés suivants :
C'est un virus de l'herpès à double brin d'ADN que l'on cultive sur des cellules TCC31 de souris. Les résultats sont observés après 2 Jours de culture.
Pour tous les virus testés, les dilutions des virus donnaient 50 plages/cupule.

[4] = tested on: Cellules B; assay: Proliferation of mouse B cells (3H-thymidine incorporation); assay type: cell-based, souris; conditions: for inhibition at 200 µg/mL: B-cell, read-out: pourcentage d'augmentation (+) ou d'inhibition (-) de la prolifération
Description: Les anticorps utilisés sont des anticorps monoclonaux (AM) naturels (N5-12, N5-17, MO-1, 62-1, D-23) et proviennent d'hybridomes préparés par fusion des cellules de rate de souris n'ayant reçu aucune immunisation au préalable ni aucune stimulation mitogénique, avec le myélome de souris X63-Ag8. Les hybridomes TNP11 et TNP9 proviennent de fusion des cellules de rate de souris immunisées avec du Ficoll-TNP. Ils ont été maintenus en culture dans le milieu RPMI complet contenant 10% de sérum de veau foetal. Les hybridomes ont été injectés à des souris Balb/c préalablement traitées au pristane dans le but d'obtenir des ascites. Les AM ont été utilisés en tant que surnageants de culture ou en tant qu'ascites ou après isolement par chromatographie d'affinité sur une colonne de DNP-Sépharose. Ces anticorps ont été testés par test immunoenzymatique sur différents antigènes immobilisés sur des plaques de polystyrène et révélés par un anticorps anti-Ig de souris couplé à la β-galactosidase.
Le TNP a été couplé à la sérumalbumine bovine (BSA) par la méthode de Little & Eisen : 1ml de BSA à 20mg/ml dans le tampon carbonate-bicarbonate, 0,1M, pH 9,5, est ajouté à 1ml d'une solution d'acide trinitrobenzène sulfonique à 2 mg/ml dans le même tampon. La réaction est arrêtée après 30 à 120 minutes selon la substitution voulue par élimination de l'excès de réactifs sur échangeur d'ions (Dowex 1 x 4) puis dialyse. Des préparations de BSA substituée avec soit 14 ou 30 molécules de TNP par molécule de BSA (TNP₁₄-BSA ou TNP₃₀-BSA) ont été utilisées.
Le DNP-Glycine (DNP-Gly) et le DNP-Lysine (DNP-Lys) proviennent des Laboratoires Sigma et sont solubilisés directement dans le milieu de culture.
Les cellules proviennent de rate ou de thymus de souris. Les souris sont tuées par dislocation cervicale et leur rate ou leur thymus prélevé stérilement sont déposés dans du milieu RPMI. Les cellules sont dissociées, lavées une fois avec du milieu puis les globules rouges sont lysés au chlorure d'ammonium (0,9%) pendant 1 minute à froid puis les cellules sont relavées dans le milieu complet.
Les sous-populations de cellules B ou T sont ensuite séparées comme suit : • Sous-population T : les cellules T sont obtenues à partir de la population de cellules de la rate par élimination des cellules portant des Ig à leur surface (sous-population B) sur des anticorps anti-Ig de souris immobilisés soit sur des billes magnétiques (Magnogel)® soit sur des boites de Pétri. • Sous-population B : les cellules B sont obtenues après détachement mécanique des supports dur lesquels elles étaient fixées par l'intermédiaire des anticorps anti-Ig (après l'isolement des cellules T), ou après élimination de la sous-population des cellules T de la population totale des cellules de rate par un traitement avec un anticorps anti-cellules T suivi de complément de cobaye. • Thymocytes : les thymocytes sont dissociés dans le RPMI et les cellules isolées sont lavées dans le milieu complet avant d'être mises en culture.
Le milieu de culture utilisé est du RPMI 1640 contenant du sérum de veau foetal (5%), du pyruvate de sodium (1mM), de la L-glutamine (1mM), du 2-mercaptoethanol (0,05 mM), de la pénicilline (100»g/ml) et de la streptomycine (50»g/ml).
2x10⁵ cellules de chaque population cellulaire ou 4x10⁵ de cellules de rate non fractionnées sont distribuées sous un volume final de 200»l dans des boîtes de culture de 96 puits à fond plat en présence ou non des différents stimulateurs (ou mitogènes)(40»g/ml de lipopolysaccharide W Salmonella typhosa 2»g/ml de concanavaline A, ou des surnageants de culture contenant les anticorps monoclonaux à différentes dilutions ou une solution de TNP-BSA à des concentrations finales allant de 200ng à 200»g/ml). Les cultures sont effectuées pendant 48 à 96 heures à 37°C dans une atmosphère de 5% de CO2.
Six à huit heures avant la fin de la culture, 100»l de surnageant sont prélevés de chaque puits de culture afin d'être testés quant à leur contenu en anticorps. […]

[5] = 200µg/ml, LPS* (mitogène ajouté après 48 heures)
[6] = 3 (µg/ml), LPS* (mitogène ajouté après 48 heures)
[7] = 12 (µg/ml), LPS* (mitogène ajouté après 48 heures)
[8] = 50 (µg/ml), LPS* (mitogène ajouté après 48 heures)
[9] = Vesicular stomatitis virus, L929

Compound: TNP-BSA
- % Inhibition ([1]; 0,3 mg/ml): 37%
- % Inhibition ([1]; 0,6 mg/ml): 51%
- % Inhibition ([1]; 0,07 mg/ml): 21%
- % Inhibition ([1]; 0,15 mg/ml): 31%
- % Inhibition ([1]; 1,2 mg/ml): 73%
- % Inhibition ([1]; 2,4 mg/ml): 72%
- % Inhibition ([2]; 0,03 mg/ml): 0%
- % Inhibition ([2]; 0,5 mg/ml): 12%
- % Inhibition ([2]; 0,06 mg/ml): 0%
- % Inhibition ([2]; 0,12 mg/ml): 0%
- % Inhibition ([2]; 0,25 mg/ml): 0%
- % Inhibition ([2]; 1,0 mg/ml): 15%
- % Inhibition ([2]; 2,0 mg/ml): 24%
- % Inhibition ([3]; 0,03 mg/ml): 0%
- % Inhibition ([3]; 0,5 mg/ml): 55%
- % Inhibition ([3]; 0,06 mg/ml): 5%
- % Inhibition ([3]; 0,12 mg/ml): 16%
- % Inhibition ([3]; 0,25 mg/ml): 35%
- % Inhibition ([3]; 1,0 mg/ml): 79%
- pourcentage d'augmentation (+) ou d'inhibition (-) de la prolifération [4, 5]: +18%
- pourcentage d'augmentation (+) ou d'inhibition (-) de la prolifération ([4]; 200µg/ml, M (milieu seul)): +100%
- pourcentage d'augmentation (+) ou d'inhibition (-) de la prolifération [4, 6]: 0%
- pourcentage d'augmentation (+) ou d'inhibition (-) de la prolifération ([4]; 3 (µg/ml), M (milieu seul)): 0%
- pourcentage d'augmentation (+) ou d'inhibition (-) de la prolifération [4, 7]: 0%
- pourcentage d'augmentation (+) ou d'inhibition (-) de la prolifération ([4]; 12 (µg/ml), M (milieu seul)): 0%
- pourcentage d'augmentation (+) ou d'inhibition (-) de la prolifération [4, 8]: 0%
- pourcentage d'augmentation (+) ou d'inhibition (-) de la prolifération ([4]; 50 (µg/ml), M (milieu seul)): +50%

Compound: O=C(O)CNc1ccc([N+](=O)[O-])cc1[N+](=O)[O-] [DNP-glycine, DNP-Glycine]
- inhibition at 30 µg/mL [2, 9]: 0%
- inhibition at 70 µg/mL [2, 9]: 0%
- inhibition at 150 µg/mL [2, 9]: 6%
- inhibition at 300 µg/mL [2, 9]: 38%
- inhibition at 600 µg/mL [2, 9]: 47%
- inhibition at 1200 µg/mL [2, 9]: 68%
- inhibition at 2400 µg/mL [2, 9]: 41%
- minimal effective concentration ([2]; Vesicular stomatitis virus, L929, 72 h, read-out: a un effet jusqu'à une concentration de): 1200 µg/mL
- inhibition at 300 µg/mL ([3]; 0,3 mg/ml): 48%
- inhibition at 600 µg/mL ([3]; 0,6 mg/ml): 50%
- inhibition at 70 µg/mL ([3]; 0,07 mg/ml): 28%
- inhibition at 150 µg/mL ([3]; 0,15 mg/ml): 40%
- inhibition at 1200 µg/mL ([3]; 1,2 mg/ml): 57%
- inhibition at 2400 µg/mL ([3]; 2,4 mg/ml): 92%
- minimal effective concentration ([3]; 48 h, lowest concentration stated as seroneutralising, virus HVE, read-out: peut séroneutraliser le virus jusqu'à une concentration de): 600 µg/mL
- pourcentage d'augmentation (+) ou d'inhibition (-) de la prolifération [4, 6]: -7%
- pourcentage d'augmentation (+) ou d'inhibition (-) de la prolifération ([4]; 3 (µg/ml), M (milieu seul)): -25%
- pourcentage d'augmentation (+) ou d'inhibition (-) de la prolifération [4, 7]: -40%
- pourcentage d'augmentation (+) ou d'inhibition (-) de la prolifération ([4]; 12 (µg/ml), M (milieu seul)): -50%
- pourcentage d'augmentation (+) ou d'inhibition (-) de la prolifération [4, 8]: -64%
- pourcentage d'augmentation (+) ou d'inhibition (-) de la prolifération ([4]; 50 (µg/ml), M (milieu seul)): -60%
- inhibition at 200 µg/mL [4, 5]: -80%
- inhibition at 200 µg/mL ([4]; 200µg/ml, M (milieu seul)): -90%
